Experimental data as given in patent US20140323296A1, “Pesticide Compositions and Methods for Their Use” (priority 2004, published 2014).
Read-outs that look alike come from different tables or passages of the source.

What was measured:
Conditions in all cases: in vivo
[1] = system: tomato plants (Lycopersicon esculentum var. Celebrity Hybrid, NK); test: IA mitigation of insecticide phytotoxicity: KRYOCIDE with or without sucrose sprayed on potted tomato plants, vigor and appearance rating
Procedure: In general, tomato plants were contacted with three different treatment formulations: (1) the sodium aluminofluoride insecticide KRYOCIDE with water and surfactant, (2) an insecticide phytotoxicity reducing formulation according to the subject invention, i.e., KRYOCIDE/water/sucrose/surfactant, and (3) sucrose/water. An untreated control was also evaluated.
1) Nine week old potted tomato plants (Lycopersicon esculentum var. Celebrity Hybrid, NK) 2) Sodium Aluminofluoride 96% a.i. (KRYOCIDE) made up in a concentration equivalent to 15 lbs per 100 gallons water+Organosilicone Surfactant (Silwet L-77) at 3 oz per 100 gallons 3) KRYOCIDE at 15 lbs per 100 gallons spray mix+SILWET L-77 at 3 oz per 100 gallons spray mix+Sucrose at 25 lbs per 100 gallons spray mix 4) Sucrose at 25 lbs per 100 gallons spray mix+SILWET L-77 at 3 oz per 100 gallons

[2] = system: Mung Bean plants (Phaseolus aureus); test: IB mitigation of bactericide-fungicide phytotoxicity: KOCIDE with or without sucrose sprayed on potted mung bean plants, leaf russeting, vigor and appearance rating
Procedure: In general, mung bean plants were contacted with three different treatment formulations: (1) the copper hydroxide bactericide-fungicide KOCIDE with water and surfactant, (2) a bactericide-fungicide phytotoxicity reducing formulation according to the subject invention, i.e., KOCIDE/water/sucrose/surfactant, and (3) sucrose/water. An untreated control was also evaluated.
1) Three week old potted Mung Bean plants (Phaseolus aureus) 2) Copper Hydroxide 20% a.i. (KOCIDE) made up in a concentration equivalent to 10 lbs per 100 gallons spray mix+Organosilicone Surfactant (SILWET L-77) at 3 oz per 100 gallons 3) KOCIDE at 10 lbs per 100 gallons spray mix+Sucrose at 25 lbs per 100 gallons+SILWET L-77 at 3 oz per 100 gallons 4) Sucrose at 25 lbs per 100 gallons+SILWET L-77 at 3 oz per 100 gallons

[3] = system: tomato plants (Lycopersicon esculentum var. Celebrity Hybrid, NK)
Procedure: (§1) In general, tomato plants were contacted with three different treatment formulations: (1) the clorothalonil fungicide BRAVO WEATHER STIK with water and surfactant, (2) a fungicide phytotoxicity reducing formulation according to the subject invention, i.e., BRAVO WEATHER STIK/water/sucrose/surfactant, and (3) sucrose/water. An untreated control was also evaluated.
1) Seven week old potted tomato plants (Lycopersicon esculentum var. Celebrity Hybrid, NK) 2) Clorothalonil 47% a.i. (BRAVO WEATHER STIK) made up in a concentration equivalent to 2 pints per 100 gallons water+Organosilicone Surfactant (SILWET L-77) at 3 oz per 100 gallons 3) BRAVO WEATHER STIK at 2 pints per 100 gallons spray mix+SILWET L-77 at 3 oz per 100 gallons+Sucrose at 25 lbs per 100 gallons 4) Sucrose at 25 lbs per 100 gallons+SILWET L-77 at 3 oz per 100 gallons

[4] = system: tomato plants (Lycopersicon esculentum var. Celebrity Hybrid, NK); test: ID mitigation of fungicide phytotoxicity: ORBIT with or without sucrose sprayed on potted tomato plants, vigor, leaf distortion and appearance rating
Procedure: as §1, with “propiconazole” for “clorothalonil”, “ORBIT” for “BRAVO WEATHER STIK”, “ORBIT/water/sucrose/surfactant,” for “BRAVO WEATHER STIK/water/sucrose/surfactant,”
1) Nine week old potted tomato plants (Lycopersicon esculentum var. Celebrity Hybrid, NK) 2) Propiconazole 41.8% a.i. (ORBIT) made up in a concentration equivalent to 12 oz per 100 gallons water+Organosilicone Surfactant (SILWET L-77) at 3 oz per 100 gal 3) ORBIT at 12 oz per 100 gallons spray mix+SILWET L-77 at 3 oz per 100 gallons+Sucrose at 25 lbs per 100 gallons 4) Sucrose at 25 lbs per 100 gallons+SILWET L-77 at 3 oz per 100 gallons

| Compound | overall vigor and appearance, Mean/Statistical Rank [1] | overall vigor and appearance, Replication 1 [1] | overall vigor and appearance, Replication 2 [1] | overall vigor and appearance, Replication 3 [1] | overall vigor and appearance, Replication 4 [1] | russeting of leaves and overall vigor and appearance, Mean/Statistical Rank [2] | russeting of leaves and overall vigor and appearance, Replication 1 [2] | russeting of leaves and overall vigor and appearance, Replication 2 [2] | russeting of leaves and overall vigor and appearance, Replication 3 [2] | russeting of leaves and overall vigor and appearance, Replication 4 [2] | overall vigor and appearance, Mean/Statistical Rank [3] | overall vigor and appearance, Replication 1 [3] | overall vigor and appearance, Replication 2 [3] | overall vigor and appearance, Replication 3 [3] | overall vigor and appearance, Replication 4 [3] | overall vigor, leaf distortion and appearance, Mean/Statistical Rank [4] | overall vigor, leaf distortion and appearance, Replication 1 [4] | overall vigor, leaf distortion and appearance, Replication 2 [4] | overall vigor, leaf distortion and appearance, Replication 3 [4] | overall vigor, leaf distortion and appearance, Replication 4 [4] |
| --- | --- | --- | --- | --- | --- | --- | --- | --- | --- | --- | --- | --- | --- | --- | --- | --- | --- | --- | --- | --- |
| OC[C@H]1O[C@@](CO)(O[C@H]2O[C@H](CO)[C@@H](O)[C@H](O)[C@H]2O)[C@@H](O)[C@@H]1O [Sucrose] | 9.75 b | 10 | 9 | 10 | 10 | 10.00 b | 10 | 10 | 10 | 10 | 10.00 b | 10 | 10 | 10 | 10 | 10.00 c | 10 | 10 | 10 | 10 |
| Clorothalonil [BRAVO WS] | – | – | – | – | – | – | – | – | – | – | 5.25 a | 5 | 5 | 6 | 5 | – | – | – | – | – |
